Experimental data from ChEMBL document CHEMBL1151045, “Synthesis and evaluation of the anticonvulsant activity of a series of 2-amino-1-phenyl-1-propanols derived from the metabolites of the antidepressant bupropion” (1997).
Where “and” joins values, the source holds several entries; their conditions need not be identical. Equal values may be shown once. Calls of active or inactive are those of the source. No cut-off for these calls is given here.

Legend:
[1] = tested on: Mus musculus; test: Anticonvulsant activity of compound was tested in mice after intraperitoneal administration in Maximal electroshock assay (MES); Inactive at 40 mg/kg dose; assay type: functional, organism-based; parameters: dose 40 mg/kg
[2] = tested on: Mus musculus; test: Anticonvulsant activity measured in Maximal electroshock assay (MES), intraperitoneal administration; assay type: functional
[3] = tested on: Mus musculus; test: Anticonvulsant activity of compound was tested in mice after intraperitoneal administration in Maximal electroshock assay (MES); Inactive at 13 mg/kg dose; assay type: functional, organism-based; parameters: dose 13 mg/kg
[4] = tested on: Mus musculus; test: Anticonvulsant activity of compound was tested in mice after intraperitoneal administration in Maximal electroshock assay (MES); Inactive at 60 mg/kg dose; assay type: functional, organism-based; parameters: dose 60 mg/kg
[5] = tested on: Mus musculus; test: Anticonvulsant activity of compound was tested in mice after intraperitoneal administration in Maximal electroshock assay (MES); Inactive at 30 mg/kg dose; assay type: functional, organism-based; parameters: dose 30 mg/kg
[6] = tested on: Mus musculus; test: Anticonvulsant activity of compound was tested in mice after intraperitoneal administration in Maximal electroshock assay (MES); Inactive at 70 mg/kg dose; assay type: functional, organism-based; parameters: dose 70 mg/kg
[7] = Mus musculus, ip, read-out: ED50

## C[C@H](NC(C)(C)C)[C@H](O)c1cccc([N+](=O)[O-])c1
[1]
  ED50: inactive

## Cc1ccc([C@@H](O)[C@@H](C)NC(C)(C)C)cc1
[2]; [7]
  ED50: 33 mg/kg

## Cc1ccc([C@@H](O)[C@H](C)NC(C)(C)C)cc1
[1]
  ED50: inactive

## C[C@@H](NC(C)(C)C)[C@H](O)c1cccc(Br)c1
[2]; [7]
  ED50: 11 mg/kg

## C[C@@H](NC1CCCCC1)[C@H](O)c1cccc(Cl)c1
[2]; [7]
  ED50: 13 mg/kg

## C[C@@H](NC(C)(C)C)[C@H](O)c1cccc([N+](=O)[O-])c1
[1]
  ED50: inactive

## CC(NC(C)(C)C)C(O)c1cccc(Cl)c1 (racemic; form 2) [ERYTHRO-HYDROBUPROPION]
[2]
  ED50: 26 mg/kg

## C[C@@H](NC(C)(C)C)[C@H](O)c1ccc(Cl)cc1
[2]; [7]
  ED50: 29 mg/kg

## C[C@H](NC(C)(C)C)[C@H](O)c1ccc(Cl)c(Cl)c1
[2]; [7]
  ED50: 31 mg/kg

## CCC(C)(C)N[C@H](C)[C@H](O)c1cccc(Cl)c1
[2]; [7]
  ED50: 11 mg/kg

## CCC(C)(C)N[C@@H](C)[C@H](O)c1cccc(Cl)c1
[2]; [7]
  ED50: 23 mg/kg

## CCC[C@H](NC(C)(C)C)[C@H](O)c1cccc(C(F)(F)F)c1
[2]; [7]
  ED50: 31 mg/kg

## CC(NC(C)(C)C)[C@H](O)c1ccccc1 (single isomer, unassigned)
[2]
  ED50: 25 mg/kg

## C[C@H](NC(C)(C)C)[C@H](O)c1cccc(Br)c1
[2]; [7]
  ED50: 16 mg/kg

## CCCCN[C@H](C)[C@H](O)c1cccc(C(F)(F)F)c1
[3]
  ED50: inactive

## CCC(C)N[C@H](C)[C@H](O)c1cccc(C(F)(F)F)c1 (some centres undefined)
[2]; [7]
  ED50: 31 mg/kg

## CC(NC(C)(C)C)C(O)c1cccc(Cl)c1 (racemic; form 1) [ERYTHRO-HYDROBUPROPION]
[2]
  ED50: 14 mg/kg

## CC(NC(C)(C)C)C(O)c1cccc(C(F)(F)F)c1 (racemic; form 1)
[2]
  ED50: 16 mg/kg

## CCC(C)(C)N[C@H](C)[C@H](O)c1cccc(C(F)(F)F)c1
[2]; [7]
  ED50: 18 mg/kg

## CC[C@@H](NC(C)(C)C)[C@H](O)c1cccc(C(F)(F)F)c1
[2]; [7]
  ED50: 31 mg/kg

## CC[C@H](NC(C)(C)C)[C@H](O)c1cccc(Cl)c1
[2]; [7]
  ED50: 26 mg/kg

## CC[C@H](NC(C)(C)C)[C@H](O)c1cccc(C(F)(F)F)c1
[2]; [7]
  ED50: 40 mg/kg

## C[C@H](N)[C@H](O)c1cccc(Cl)c1
[4]
  ED50: inactive

## CCC(C)(C)N[C@@H](C)[C@H](O)c1cccc(C(F)(F)F)c1
[2]; [7]
  ED50: 28 mg/kg

## C[C@@H](NC(C)(C)C)[C@H](O)c1ccccc1
[2]; [7]
  ED50: 14 mg/kg

## C[C@H](NC(C)(C)C)[C@H](O)c1ccc(Cl)cc1
[2]; [7]
  ED50: 25 mg/kg

## CC(C)N[C@@H](C)[C@H](O)c1cccc(Cl)c1
[2]; [7]
  ED50: 20 mg/kg

## CC(C)(C)NCC(O)c1cccc(Cl)c1 (centres undefined)
[2]; [7]
  ED50: 28 mg/kg

## CC[C@@H](NC(C)(C)C)[C@H](O)c1cccc(Cl)c1
[2]; [7]
  ED50: 15 mg/kg

## CCC[C@H](NC(C)(C)C)[C@H](O)c1cccc(Cl)c1
[2]; [7]
  ED50: 31 mg/kg

## C[C@@H](NC(C)(C)C)[C@H](O)c1cccc(C(F)(F)F)c1
[2]
  ED50: 17 mg/kg and 22 mg/kg

## C[C@H](NC(C)(C)CO)[C@H](O)c1cccc(Cl)c1
[5]
  ED50: inactive

## C[C@@H](NC(C)(C)C)[C@H](O)c1cccc(Cl)c1 [ERYTHRO-HYDROBUPROPION]
[2]
  ED50: 11 mg/kg

## C[C@H](NC(C)(C)C)[C@H](O)c1cccc(Cl)c1 [ERYTHRO-HYDROBUPROPION]
[2]
  ED50: 28 mg/kg

## O=C1NC(=O)C(c2ccccc2)(c2ccccc2)N1 [PHENYTOIN]
[2]; [7]
  ED50: 8.5 mg/kg

## CC(C)N[C@H](C)[C@H](O)c1cccc(C(F)(F)F)c1
[2]; [7]
  ED50: 40 mg/kg

## COc1ccc([C@@H](O)[C@H](C)NC(C)(C)C)cc1
[6]
  ED50: inactive

## C[C@@H](NC(C)(C)C)[C@H](O)c1ccc(Cl)c(Cl)c1
[2]; [7]
  ED50: 13 mg/kg

## CC(NC(C)(C)C)C(O)c1cccc(C(F)(F)F)c1 (racemic; form 2)
[2]; [7]
  ED50: 25 mg/kg
